From PMC4515243, “Phase 1 pharmacokinetic study of the oral pan-AKT inhibitor MK-2206 in Japanese patients with advanced solid tumors” (Cancer Chemotherapy and Pharmacology, 2015)
Read-outs that look alike come from different tables or passages of the source.

How the values were obtained:
AKT2 [1] = system: AKT2; parameters: method as in ref 3 = [3]; 3. Yan L (2009) MK-2206: a potent oral allosteric AKT inhibitor [abstract #DDT01-1]. In: Proceedings of the 100th annual meeting of the American association for cancer research, Denver, CO, 18–22 Apr; settings: purified recombinant AKT2, in vitro; cited from earlier work
advanced solid tumors = assay: tumor response according to RECIST version 1.0 in Japanese patients; format: in vivo, human
Protocol: The anti-tumor activity was evaluated at baseline and every 6 weeks according to the Response Evaluation Criteria In Solid Tumors (RECIST), version 1.0.

[2] = non-Japanese patients; cited from earlier work
AKT3 [3] = system: AKT3; parameters: method as in ref 4 = [4]; 4. Lu W, Defeo-Jones D, Davis L et al (2009) In vitro and in vivo antitumor activities of MK-2206, a new allosteric Akt inhibitor [abstract #3714]. In: Proceedings of the 100th annual meeting of the A; settings: several cancer cell lines; cited from earlier work
AKT3 [4] = system: AKT3; parameters: method as in ref 3 = [3]; 3. Yan L (2009) MK-2206: a potent oral allosteric AKT inhibitor [abstract #DDT01-1]. In: Proceedings of the 100th annual meeting of the American association for cancer research, Denver, CO, 18–22 Apr; settings: purified recombinant AKT3, in vitro; cited from earlier work
[5] = plasma pharmacokinetics in Japanese patients (HPLC-MS/MS); format: in vivo, human; settings: for AUC(0-t) / concentration at 48 h / Cmax / Tmax / half-life: human, plasma, oral; for half-life: read-out: Apparent terminal t½ (converted)
Protocol: Blood samples for the QOD dosing schedule were collected for PK analyses just before and 2, 4, 6, 10, 24, and 48 h after MK-2206 dosing on days 1 and 27 of Cycle 1. After the final dose of MK-2206 during Cycle 1, blood samples were drawn 96, 144, and 192 h postdose during the 1-week rest period. Samples were also drawn directly before MK-2206 treatment on days 7, 15, and 21. Blood samples for the QW dosing schedule were collected for PK analyses just before and 2, 4, 6, 10, 24, 48, and 96 h after MK-2206 dosing on days 1 and 22 of Cycle 1. After the final dose of MK-2206 in Cycle 1, blood samples were drawn 168 and 240 h postdose during the 1-week rest period. Samples were also drawn directly before MK-2206 treatment on days 8 and 15. The blood samples were centrifuged, and the plasma was separated and stored at −20 °C. The plasma concentrations were analyzed using high-performance liquid chromatography with tandem mass spectroscopy (HPLC–MS/MS) at Merck Research Labs, West Point, PA.
PK differences were observed after exposure to MK-2206 in Japanese patients, compared with non-Japanese patients. Consequently, the PK data were analyzed using t tests and nonparametric Wilcoxon–Mann–Whitney tests because of potential differences in variance. […] No differences in Tmax were observed.

AKT2 [6] = system: AKT2; parameters: method as in ref 4 = [4]; 4. Lu W, Defeo-Jones D, Davis L et al (2009) In vitro and in vivo antitumor activities of MK-2206, a new allosteric Akt inhibitor [abstract #3714]. In: Proceedings of the 100th annual meeting of the A; settings: several cancer cell lines; cited from earlier work
[7] = system: in vivo preclinical models; parameters: method as in PMID 20571069; settings: single agent; cited from earlier work
[8] = system: non-Japanese patients with advanced solid tumors; settings: cited from earlier work
AKT pathway = system: AKT pathway; parameters: method as in PMID 25239610; settings: continuous QOD and intermittent QW dosing, serially obtained tumor and platelet-rich plasma; cited from earlier work
AKT1 kinase activity = biological target: AKT1 kinase activity; parameters: method as in ref 4 = [4]; 4. Lu W, Defeo-Jones D, Davis L et al (2009) In vitro and in vivo antitumor activities of MK-2206, a new allosteric Akt inhibitor [abstract #3714]. In: Proceedings of the 100th annual meeting of the A; settings: several cancer cell lines; cited from earlier work

Which results are given for `NC1(c2ccc(-c3nc4ccn5c(=O)[nH]nc5c4cc3-c3ccccc3)cc2)CCC1` [MK-2206]?
IC50 (AKT2 [1]): 12 nM; tumor responses (RECIST 1.0) (advanced solid tumors; 24 patients evaluated): no tumor responses; patients with SD lasting longer than 4 months (advanced solid tumors; all cohorts): 6 of the 24; patients with SD lasting longer than 4 months, percent (advanced solid tumors; all cohorts): 25%; patients with SD for 6 months or longer (advanced solid tumors; one mediastinal tumor, one esophageal cancer): two patients; patients with stable disease (SD) for 4 months or longer (advanced solid tumors; two cervical cancer, one leiomyosarcoma, one breast cancer): Four patients; apparent terminal half-life (t½) [2]: 60 to 90 h; terminal elimination half-life [2]: 60 to 80 h; potency on AKT3 activity relative to AKT1 (AKT3 [3]): two to sixfold less potently; IC50 (AKT3 [4]): 65 nM; Tmax First dose ([5]; 45 mg QOD (n = 3), Day 1, median (min–max)): 4.0 (4.0–6.0) h; Apparent terminal t½ ([5]; 45 mg QOD (n = 3), harmonic mean ± pseudo SD): 79.6 ± 8.5 h; GMR C48-h ([5]; 45 mg QOD, geometric mean ratio CDay27/CDay1): 5.02; Tmax Last dose ([5]; 60 mg QOD (n = 9), Day 27, median (min–max)): 6.0 (2.0–10.0) h; GMR C48-h ([5]; 60 mg QOD, geometric mean ratio CDay27/CDay1): 3.68; GMR C48-h ([5]; 135 mg QW, geometric mean ratio CDay22/CDay1): 1.25; GMR C48-h ([5]; 200 mg QW, geometric mean ratio CDay22/CDay1): 1.78; mean exposure values (Cmax and AUC), Japanese versus non-Japanese patients ([5]; 45- and 60-mg QOD and 200-mg QW cohorts, higher): 1.4–1.9 fold; mean exposure values (Cmax and AUC), Japanese versus non-Japanese patients ([5]; 135-mg QW cohort, lower): 0.7–1.3; AUC, Cmax and Ctrough versus non-Japanese patients ([5]; 200-mg QW cohort, P < 0.05): significantly higher; AUC(0-t) ([5]; 45 mg, 45 mg QOD (n = 3), Day 1, AUC0–48h, geometric mean (coefficient of variation), read-out: AUCt First dose): 1.85 µM·h; concentration at 48 h ([5]; 45 mg, 45 mg QOD (n = 3), Day 1, geometric mean (coefficient of variation), read-out: C48-h First dose): 28.8 nM; Cmax ([5]; 45 mg, 45 mg QOD (n = 3), Day 1, geometric mean (coefficient of variation), read-out: Cmax First dose): 60.5 nM; AUC(0-t) ([5]; 45 mg, 45 mg QOD (n = 3), Day 27, AUC0–48h, geometric mean (coefficient of variation), read-out: AUCt Last dose): 8.49 µM·h; concentration at 48 h ([5]; 45 mg, 45 mg QOD (n = 3), Day 27, geometric mean (coefficient of variation), read-out: C48-h Last dose): 144 nM; Cmax ([5]; 45 mg, 45 mg QOD (n = 3), Day 27, geometric mean (coefficient of variation), read-out: Cmax Last dose): 214 nM; AUC(0-t) ([5]; 60 mg, 60 mg QOD (n = 9), Day 1, AUC0–48h, geometric mean (coefficient of variation), read-out: AUCt First dose): 2.72 µM·h; concentration at 48 h ([5]; 60 mg, 60 mg QOD (n = 9), Day 1, geometric mean (coefficient of variation), read-out: C48-h First dose): 40.6 nM; Cmax ([5]; 60 mg, 60 mg QOD (n = 9), Day 1, geometric mean (coefficient of variation), read-out: Cmax First dose): 95.9 nM; AUC(0-t) ([5]; 60 mg, 60 mg QOD (n = 9), Day 27, AUC0–48h, geometric mean (coefficient of variation), read-out: AUCt Last dose): 9.69 µM·h; concentration at 48 h ([5]; 60 mg, 60 mg QOD (n = 9), Day 27, geometric mean (coefficient of variation), read-out: C48-h Last dose): 152 nM; Cmax ([5]; 60 mg, 60 mg QOD (n = 9), Day 27, geometric mean (coefficient of variation), read-out: Cmax Last dose): 277 nM; Tmax ([5]; 60 mg, QOD dosing (45 or 60 mg), Japanese patients, read-out: median Tmax): 4 to 6 h; AUC(0-t) ([5]; 135 mg, 135 mg QW (n = 3), Day 1, AUC0–168h, geometric mean (coefficient of variation), read-out: AUCt First dose): 9.68 µM·h; concentration at 48 h ([5]; 135 mg, 135 mg QW (n = 3), Day 1, geometric mean (coefficient of variation), read-out: C48-h First dose): 83.2 nM; Cmax ([5]; 135 mg, 135 mg QW (n = 3), Day 1, geometric mean (coefficient of variation), read-out: Cmax First dose): 234 nM; AUC(0-t) ([5]; 135 mg, 135 mg QW (n = 3), Day 22, AUC0–168h, geometric mean (coefficient of variation), read-out: AUCt Last dose): 12.8 µM·h; concentration at 48 h ([5]; 135 mg, 135 mg QW (n = 3), Day 22, geometric mean (coefficient of variation), read-out: C48-h Last dose): 104 nM; Cmax ([5]; 135 mg, 135 mg QW (n = 3), Day 22, geometric mean (coefficient of variation), read-out: Cmax Last dose): 244 nM; AUC(0-t) ([5]; 135 mg, 135 mg QW, Day 22, read-out: AUC0–48h): 12.8 µM·h; AUC(0-t) ([5]; 200 mg, 200 mg QW (n = 9), Day 1, AUC0–168h, geometric mean (coefficient of variation), read-out: AUCt First dose): 24.3 µM·h; concentration at 48 h ([5]; 200 mg, 200 mg QW (n = 9), Day 1, geometric mean (coefficient of variation), read-out: C48-h First dose): 186 nM; Cmax ([5]; 200 mg, 200 mg QW (n = 9), Day 1, geometric mean (coefficient of variation), read-out: Cmax First dose): 439 nM; AUC(0-t) ([5]; 200 mg, 200 mg QW (n = 9), Day 22, AUC0–168h, geometric mean (coefficient of variation), read-out: AUCt Last dose): 37.6 µM·h; concentration at 48 h ([5]; 200 mg, 200 mg QW (n = 9), Day 22, geometric mean (coefficient of variation), read-out: C48-h Last dose): 302 nM; Cmax ([5]; 200 mg, 200 mg QW (n = 9), Day 22, geometric mean (coefficient of variation), read-out: Cmax Last dose): 571 nM; Tmax ([5]; 200 mg, 200 mg QW (n = 9), Day 22, median (min–max), read-out: Tmax Last dose): 5 h; AUC(0-t) ([5]; 200 mg, 200 mg QW, Day 22, read-out: AUC0–48h): 37.6 µM·h; Tmax ([5]; 200 mg, QW dosing (135 and 200 mg), Japanese patients, read-out: median Tmax): 4 to 6 h; half-life ([5]; 60 mg QOD (n = 9), harmonic mean ± pseudo SD): 71.8 ± 8.9 h; half-life ([5]; 135 mg QW (n = 3), harmonic mean ± pseudo SD): 69.3 ± 8.9 h; half-life ([5]; 200 mg QW (n = 9), harmonic mean ± pseudo SD): 75.6 ± 9.7 h; potency on AKT2 activity relative to AKT1 (AKT2 [6]): two to sixfold less potently; anti-tumor activity [7]: showed anti-tumor activity; patients who experienced a DLT ([8]; 60 mg QOD, grade 3 skin rash): One of 20; patients who experienced a DLT, percent ([8]; 60 mg QOD): 5.0%; patients who experienced DLTs ([8]; 200 mg QW, grade 3 skin rash (three), grade 3 dermatitis acneiform (one)): Four of 17; patients who experienced DLTs, percent ([8]; 200 mg QW): 23.5%; maximum tolerated dose (MTD) ([8]; QOD dosing schedule): 60 mg/day; maximum tolerated dose (MTD) ([8]; QW dosing schedule): 200 mg/day; AKT pathway blockade (AKT pathway): Significant AKT pathway blockade; IC50 (AKT1 kinase activity): ~20 nM
